IC50 and viability, T/C data for five compounds are collected here from PubChem BioAssay AID2060599 (Molecular Pharmacology Branch, DTP, NCI, 2025).

What is called pIC50 is the negative decadic logarithm of the IC50, by convention in mol/L. Usually viability, T/C stands for the ratio of treated to control.

In this assay the test system is 817829-284-R-J1-PDC complex spheroids, viability. In words: Anticancer human tumor 817829-284-R-J1-PDC patient-derived colon adenocarcinoma cell line growth inhibition [CLK]. To be noted: for viability, T/C: stronger effect = lower value. The method in brief:
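Multi-cell-type spheroids combined patient-derived tumor cells with HUVEC endothelial cells and human mesenchymal stem cells. Paired agents were dosed in half-log steps down from about clinical Cmax, or from 10 microM where Cmax was unknown.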

Setting [1] is: curve of first compound, second compound 0.0316 µM.
The mark [2] stands for this setting: curve of first compound, second compound 0.1 µM.
Setting [3] is: curve of first compound, second compound 0.316 µM.
Setting [4] is: curve of first compound, second compound 1 µM.
Setting [5] is: curve of first compound, second compound 3.16 µM.
[6] abbreviates: curve of first compound, second compound 10 µM.

pIC50: −log10 of the molar value. Where “and” joins values, the source holds several entries; their conditions need not be identical. Equal values may be shown once.
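Also: spheroids exposed to the agents for seven days before readout.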

As to `O=c1[nH]cc(F)c(=O)[nH]1` + CNC(=O)c1ccc(Nc2nc(OC3CCCC3)c3c(-c4ccc5nc(C)oc5c4)c[nH]c3n2)c(OC)c1, the pIC50 by setting is: under setting [1], > 7.50; under setting [2], > 7.50; under setting [3], > 7.50; under setting [4], > 7.50; under setting [5], > 7.50; under setting [6], > 7.50. The viability, T/C is, setting by setting: (second compound 0.0316 µM, first compound 0.0316 µM) 37.3%; (second compound 0.0316 µM, first compound 0.1 µM) 39.1%; (second compound 0.0316 µM, first compound 0.316 µM) 24.6%; (second compound 0.0316 µM, first compound 1 µM) 38.4%; (second compound 0.0316 µM, first compound 3.16 µM) 29.1%; (second compound 0.0316 µM, first compound 10 µM) 22.6%. The viability, T/C by setting is: (second compound 0.1 µM, first compound 0.0316 µM) 19.2%; (second compound 0.1 µM, first compound 0.1 µM) 24%; (second compound 0.1 µM, first compound 0.316 µM) 22.7%; (second compound 0.1 µM, first compound 1 µM) 22.6%; (second compound 0.1 µM, first compound 3.16 µM) 18.5%; (second compound 0.1 µM, first compound 10 µM) 17.6%. Besides, the viability, T/C is, setting by setting: (second compound 0.316 µM, first compound 0.0316 µM) 17.6%; (second compound 0.316 µM, first compound 0.1 µM) 26.6%; (second compound 0.316 µM, first compound 0.316 µM) 17.4%; (second compound 0.316 µM, first compound 1 µM) 23.1%; (second compound 0.316 µM, first compound 3.16 µM) 15%; (second compound 0.316 µM, first compound 10 µM) 12.6%. Further, the viability, T/C (second compound 1 µM, first compound 0.0316 µM) is 17.2%; the viability, T/C (second compound 1 µM, first compound 0.1 µM) was 16.8%; the viability, T/C (second compound 1 µM, first compound 0.316 µM) is 16.9%; the viability, T/C (second compound 1 µM, first compound 1 µM) is 11.3%; the viability, T/C (second compound 1 µM, first compound 3.16 µM) was 13.3%; the viability, T/C (second compound 1 µM, first compound 10 µM) is 7%. The viability, T/C runs as follows: (second compound 3.16 µM, first compound 0.0316 µM) 18.9%; (second compound 3.16 µM, first compound 0.1 µM) 20.1%; (second compound 3.16 µM, first compound 0.316 µM) 13.6%; (second compound 3.16 µM, first compound 1 µM) 14.7%; (second compound 3.16 µM, first compound 3.16 µM) 10.8%; (second compound 3.16 µM, first compound 10 µM) 7.07%. The viability, T/C (second compound 10 µM, first compound 0.0316 µM) is 20.7%; the viability, T/C (second compound 10 µM, first compound 0.1 µM) is 22.1%; the viability, T/C (second compound 10 µM, first compound 0.316 µM) is 17.8%; the viability, T/C (second compound 10 µM, first compound 1 µM) was 11.7%; the viability, T/C (second compound 10 µM, first compound 3.16 µM) is 7.79%; the viability, T/C (second compound 10 µM, first compound 10 µM) was 7.22%.

With `CCN1CCN(Cc2ccc(Nc3ncc(F)c(-c4cc(F)c5nc(C)n(C(C)C)c5c4)n3)nc2)CC1`, the viability, T/C (compound 0.00316 µM) was 79.4%; the viability, T/C (compound 0.01 µM) was 55.3%; the viability, T/C (compound 0.0316 µM) was 57.5%; the viability, T/C (compound 0.1 µM) is 50.8%; the viability, T/C (compound 0.316 µM) was 85.4%; the viability, T/C (compound 1 µM) is 39.3%. In addition, the negative logarithm of the IC50 (pIC50) (curve of compound) was < 6.00.

For the compound `Nc1ccn(C2OC(CO)C(O)C2(F)F)c(=O)n1` (stereo not given), the viability, T/C is, setting by setting: (compound 0.0316 µM) 4.87% and 7.45%; (compound 0.1 µM) 5.51% and 7.25%; (compound 0.316 µM) 4.21% and 7.26%; (compound 1 µM) 3.92% and 6.91%; (compound 3.16 µM) 3.8% and 5.67%; (compound 10 µM) 2.53% and 4.69%. Further, the negative-log IC50 (pIC50) (curve of compound) is > 7.50.

With `C=CC(=O)Nc1cc(Nc2nccc(-c3cn(C)c4ccccc34)n2)c(OC)cc1N(C)CCN(C)C` + CN1CCN(c2cc(C(=O)Nc3cc4cc(-c5cnn(C)c5)ccc4cn3)ccn2)CC1, the pIC50 is, setting by setting: under setting [1], < 6.52; under setting [2], > 9.02; under setting [3], > 9.02; under setting [4], > 9.02; under setting [5], > 9.02; under setting [6], > 9.02. Also, the viability, T/C by setting is: (second compound 0.0316 µM, first compound 0.000949 µM) 51.7%; (second compound 0.0316 µM, first compound 0.003 µM) 48.2%; (second compound 0.0316 µM, first compound 0.00949 µM) 57.6%; (second compound 0.0316 µM, first compound 0.03 µM) 58.5%; (second compound 0.0316 µM, first compound 0.0949 µM) 67.9%; (second compound 0.0316 µM, first compound 0.3 µM) 41.1%. Further, the viability, T/C is 16.4% (second compound 0.1 µM, first compound 0.000949 µM); 17.8% (second compound 0.1 µM, first compound 0.003 µM); 16.3% (second compound 0.1 µM, first compound 0.00949 µM); 19.6% (second compound 0.1 µM, first compound 0.03 µM); 14.4% (second compound 0.1 µM, first compound 0.0949 µM); 10.9% (second compound 0.1 µM, first compound 0.3 µM). Further, the viability, T/C (second compound 0.316 µM, first compound 0.000949 µM) is 1.39%; the viability, T/C (second compound 0.316 µM, first compound 0.003 µM) is 1.52%; the viability, T/C (second compound 0.316 µM, first compound 0.00949 µM) is 1.82%; the viability, T/C (second compound 0.316 µM, first compound 0.03 µM) is 1.58%; the viability, T/C (second compound 0.316 µM, first compound 0.0949 µM) is 1.13%; the viability, T/C (second compound 0.316 µM, first compound 0.3 µM) was 0.72%. Further, the viability, T/C by setting is: (second compound 1 µM, first compound 0.000949 µM) 0.08%; (second compound 1 µM, first compound 0.003 µM) 0.12%; (second compound 1 µM, first compound 0.00949 µM) 0.1%; (second compound 1 µM, first compound 0.03 µM) 0.09%; (second compound 1 µM, first compound 0.0949 µM) 0.17%; (second compound 1 µM, first compound 0.3 µM) 0.09%. Moreover, the viability, T/C (second compound 3.16 µM, first compound 0.000949 µM) was 0.14%; the viability, T/C (second compound 3.16 µM, first compound 0.003 µM) was 0.16%; the viability, T/C (second compound 3.16 µM, first compound 0.00949 µM) was 0.18%; the viability, T/C (second compound 3.16 µM, first compound 0.03 µM) was 0.12%; the viability, T/C (second compound 3.16 µM, first compound 0.0949 µM) is 0.1%; the viability, T/C (second compound 3.16 µM, first compound 0.3 µM) was 0.1%. Moreover, the viability, T/C (second compound 10 µM, first compound 0.000949 µM) was 0.14%; the viability, T/C (second compound 10 µM, first compound 0.003 µM) is 0.13%; the viability, T/C (second compound 10 µM, first compound 0.00949 µM) is 0.13%; the viability, T/C (second compound 10 µM, first compound 0.03 µM) was 0.13%; the viability, T/C (second compound 10 µM, first compound 0.0949 µM) is 0.15%; the viability, T/C (second compound 10 µM, first compound 0.3 µM) is 0.13%.

Turning to `CC(=O)O[C@H]1C(=O)[C@@]2(C)[C@H]([C@H](OC(=O)c3ccccc3)[C@]3(O)C[C@H](OC(=O)[C@H](O)[C@@H](NC(=O)c4ccccc4)c4ccccc4)C(C)=C1C3(C)C)[C@]1(OC(C)=O)CO[C@@H]1C[C@@H]2O`, the viability, T/C was 5.82% and 6.97% (compound 0.0316 µM); 4.87% and 7.28% (compound 0.1 µM); 5.22% and 6.91% (compound 0.316 µM); 5.4% and 7.87% (compound 1 µM); 6.88% and 8.37% (compound 3.16 µM); 6.36% and 7.7% (compound 10 µM). Also, the pIC50 (curve of compound) was > 7.50.
